Earlier results on one molecule are cited in patent publication US20050148628A1 (priority 2002, published 2005).

The structures appear in SMILES notation.

For the series the following is noted: in vivo.

For `OC(c1cc(C(F)(F)F)nc2c(C(F)(F)F)cccc12)C1CCCCN1` (stereo not shown) [mefloquine], the terminal elimination half-life was 2-3 weeks.
